{"source": "paper PMC8704911", "about": "“Novel Combinatorial Strategy Using Thermal Inkjet Bioprinting, Chemotherapy, and Radiation on Human Breast Cancer Cells; an In-Vitro Cell Viability Assessment” (Materials, 2021)", "key": {"MDA-MB-231 cells": {"test_system": "MDA-MB-231 cells", "conditions": "H2O2 exposure, RT = 20 Gy (table head; Table 6 title says 10 Gray in 3 fractions)"}, "MCF7 cells": {"test_system": "MCF7 cells", "conditions": "H2O2 exposure", "method": "PD 0332991 HCL (Palbociclib) and letrozole (Let; Formula: C17H11N5) were obtained from Fisher Scientific (Waltham, MA, USA). Palbociclib was dissolved in dimethyl sulfoxide (DMSO) to obtain a stock solution of 1 mM. Letrozole was dissolved in DMSO as a 100 mM stock solution. Drugs were serially diluted to determine the cytotoxic concentration 50% (CC50) of the TIB and manually seeded cell samples required to kill 50% of the cell population. Additionally, the CC50 values were determined by using the cytotoxicity values obtained experimentally and the linear interpolator webpage (https://www.johndcook.com/interpolator.html (accessed on 16 December 2021)) as previously described. […] TIB and MS MCF7 cells were incubated for 24 h prior to drug exposure. The same procedure explained in Section 2.5 was followed to determine cell viability.\nApproximately, 1.2 × 10^6 cells/mL were resuspended in 1x PBS and used as the bioink cell solution. Modified inkjet cartridges were sonicated in deionized water for 15 min and tested in a previously modified thermal inkjet printer (HP Deskjet 340 Printer, HP, Palo Alto, CA, USA) inside of a biological safety cabinet. Next, 100 µL of cell solution was added to a modified sterile inkjet printer cartridge. The cell solution was bioprinted over one-half of the 96-well plate containing 200 µL of pre-incubated media. Manually seeded cells (MS) were added to the other half of the 96-well plate. Both TIB and MS cells were incubated immediately after with two media changes first at three days post bioprinting and then prior to the drug treatments.\nThermal inkjet bioprinted and manually seeded MCF7 cells were incubated for 5 days post bioprinting with two media changes to allow cells to settle and grow in their new environment. On the 5th day, each well-containing cell was adjusted to 10, 50, 100, and 150 µM PD and 10 µM Let. Letrozole remained constant for all treatments at 10 µM and is referred to as ##.# µM PD-Let. After 12 h post inoculation then at 24-h intervals for five consecutive days, all PD-Let-treated and non-treated cells were exposed to fractionated irradiation (RT) of 2, 4 (twice), and 5 (twice) Gray (Gy) for a cumulative dose of 10 and 20 Gy. Cell media was replenished after cumulative irradiation exposure of 10 Gy.\nCytotoxicity was assessed using an automated live-cell differential nuclear staining (DNS) imaging assay. […] Cytotoxicity was evaluated 12 h post irradiation by using the live-cell differential nuclear staining […] assay utilizing Hoechst 33342 and propidium iodide (PI) stains as previously described. […] Images of cells from individual wells used to quantify their viability profiles were independently captured by using the IN Cell Analyzer 2000 multi-well plate reader bioimager system (GE Healthcare, Systems, Chicago, IL, USA). […]"}, "MCF-10A cells": {"test_system": "MCF-10A cells", "conditions": "H2O2 exposure"}}, "note": "Like-named read-outs stand apart in the source and are kept apart here."}
{"smiles": "OO", "note": "[H2O2]", "values": [{"measurement": "Mean % of Live Cells MS", "setting": "MDA-MB-231 cells", "result": 0.4, "unit": "%"}, {"measurement": "Mean % of Live Cells TIB", "setting": "MDA-MB-231 cells", "result": 0.0, "unit": "%"}, {"measurement": "Mean % of Live Cells MS", "setting": "MCF7 cells; RT = 10 gray in 3 fractions", "result": 15.4, "unit": "%"}, {"measurement": "Mean % of Live Cells TIB", "setting": "MCF7 cells; RT = 10 gray in 3 fractions", "result": 12.1, "unit": "%"}, {"measurement": "Mean % of Live Cells MS", "setting": "MCF7 cells; RT = 20 gray in 5 fractions", "result": 0.3, "unit": "%"}, {"measurement": "Mean % of Live Cells TIB", "setting": "MCF7 cells; RT = 20 gray in 5 fractions", "result": 0.0, "unit": "%"}, {"measurement": "Mean % of Live Cells MS", "setting": "MCF-10A cells; RT = 0", "result": 0.00, "unit": "%"}, {"measurement": "Mean % of Live Cells TIB", "setting": "MCF-10A cells; RT = 0", "result": 0.0, "unit": "%"}, {"measurement": "Mean % of Live Cells TIB", "setting": "MCF-10A cells; RT = 10 gray in 3 fractions, first column", "result": 2.9, "unit": "%"}, {"measurement": "Mean % of Live Cells TIB", "setting": "MCF-10A cells; RT = 10 gray in 3 fractions, second column so headed", "result": 2.8, "unit": "%"}, {"measurement": "Mean % of Live Cells MS", "setting": "MCF-10A cells; RT = 20 Gray in 5 fractions", "result": 1.9, "unit": "%"}, {"measurement": "Mean % of Live Cells TIB", "setting": "MCF-10A cells; RT = 20 Gray in 5 fractions", "result": 0.0, "unit": "%"}]}
